From patent US9540299B2, “MTOR-independent activator of TFEB for autophagy enhancement and uses thereof” (Hong Kong Baptist University, priority 2015, dated 2017)

What was measured:
[1] = test system: N2a cells; experiment: LC3 puncta and tfLC3 autophagy flux imaging in N2a cells; type: cell-based, mouse
Description: N2a cells are treated with E4 (1 μM) in the presence or absence of CQ for 12 hours. The cells are fixed and stained with LC3 antibody (red) and DAPI (blue). Representative cells are then selected and photographed under a DeltaVision Deconvolution Microscope (GE Healthcare).
N2a cells are transiently transfected with mRFP-GFP-LC3 (tfLC3) plasmid and then treated with E4 (1 μM) or CQ (1 μM) for 12 hours. Representative cells are then selected and photographed under a DeltaVision Deconvolution Microscope (GE Healthcare).
After transiently knockdown the expression of TFEB, N2a cells are treated with E4 (1 μM) for 12 hours, the cells were then stained with LC3 antibody (red) and DAPI (blue).
Cells are seeded on coverslips placed in 24-well plates. For autophagy flux assay, cells are transfected with tfLC3 plasmid for 24 hours and then treated with the indicated compounds. For other assays, at the end drug treatment, slices are fixed with 3.7% paraformaldehyde, permeabilized in 0.2% Triton X-100 and blocked with 5% BSA. After blocking, the slices are stained with anti-TFEB (1:200) or anti-LC3 (1:500) antibodies overnight at 4° C. […] Cells are visualized using the Eclipse 80i fluorescence microscope (Nikon Instruments Inc.) or the DeltaVision Deconvolution Microscope (GE Healthcare).

[2] = target: T1, purified His-TFEB (Homo sapiens, UniProt P19484); experiment: Binding of solid-phase compound to purified recombinant His-TFEB; conditions: 17 μmol compound powder, RIPA buffer, 2 hours at 4° C.; 55 kDa band by TFEB antibody
T1 construct: purchased ORIGENE TP760282
T1 sequence (P19484 1-476): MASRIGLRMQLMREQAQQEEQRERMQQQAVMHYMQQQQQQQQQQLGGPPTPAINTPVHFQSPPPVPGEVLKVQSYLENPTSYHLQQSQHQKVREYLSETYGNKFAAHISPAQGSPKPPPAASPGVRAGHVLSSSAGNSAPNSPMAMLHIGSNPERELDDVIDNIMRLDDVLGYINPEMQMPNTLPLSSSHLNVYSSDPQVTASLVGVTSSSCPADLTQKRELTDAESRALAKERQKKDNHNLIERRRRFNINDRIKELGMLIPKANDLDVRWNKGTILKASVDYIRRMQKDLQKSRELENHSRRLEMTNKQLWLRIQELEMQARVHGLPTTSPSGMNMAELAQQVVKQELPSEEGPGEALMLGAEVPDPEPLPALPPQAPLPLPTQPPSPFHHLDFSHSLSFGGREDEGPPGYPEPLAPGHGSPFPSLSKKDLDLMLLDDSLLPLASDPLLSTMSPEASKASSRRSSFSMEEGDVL
Description: Hela cells stably expressing 3×Flag-TFEB are treated with C1 (1 μM) for 12 h. Endogenous MTOR (A) and YWHA (B) are co-immunoprecipitated with Flag-TFEB. The levels of immunoprecipitated MTOR and YWHA are normalized to their corresponding levels in whole cell lysates (WCL). […] However, when MTOR and YWHA coimmunoprecipitated with Flag-TFEB after C1 treatment, interaction of MTOR and YWHA is decreased as compared with control. […] Furthermore, purified His-TFEB (TP760282, ORIGENE) is diluted in RIPA buffer and 17 μmol curcumin (6.3 mg) or C1 (5 mg) powder is added into TFEB solution and incubated for 2 hours at 4° C. with shaking. The supernatant is discarded after centrifuge. The pellet (compounds and the bound protein) is washes 4 times in RIPA buffer and the bound proteins are eluted by adding 2% SDS sampling buffer. The bound proteins are separated on 10% SDS—polyacrylamide gel and visualized by TFEB antibody (Proteintech).

[3] = test system: endogenous SNCA; experiment: Chronic (21 days) oral administration in SD rats: autophagy markers, SNCA, tolerability; type: in vivo; conditions: oral 10 mg/kg for 21 days
Description: SD rats (n=6 per group) are orally administered by gavage with C1 (10 mg/kg per day) or vehicle (1% CMC-Na) for 21 days. An additional dosage of C1 is given for 6 h before the rats are killed. FIG. 11A is western blots showing the protein levels as indicated in the liver, frontal cortex and striatum. FIG. 11B-11D are quantitative data protein levels in the liver frontal cortex and striatum. Data are presented as the mean±SD (n=6). *p<0.05 vs. the vehicle treatment.
(§1) All animal care and procedures are approved by the Hong Kong Baptist University Committee on the Use of Human and Animal Subjects in Teaching and Research. Adult male Sprague-Dawley (SD) rats weighted 350-400 g are maintained on ad libitum food and water with a 12-hour light/dark cycle in a controlled environment. For short-term treatment, rats (n=6 per group) are orally administered by gavage with C1 (10 mg/kg and 25 mg/kg per day) or vehicle (1% sodium carbonyl methylcellulose (CMC-Na)) for 24 h. For chronic treatment, C1 (10 mg/kg per day) is given by gavage to rats for 21 days. At the end of each treatment, an additional dosage of C1 is given for 6 h before the rats are killed. Livers and major brain regions dissected are snap-frozen in liquid nitrogen.
Cells are lysed on ice in 1× Lysis Buffer (9803, Life Technologies) with complete protease inhibitor mixture (04693124001, Roche Applied Science). Animal tissues are homogenized in nine volumes of ice-cold PBS supplemented with protease inhibitors. Cytosolic and nuclear fractions are isolated using protocols similar to those described previously. Anti-Flag or TFEB antibody is added to the whole cell lysates and Dynabeads® Protein G (10003D, Life Technologies) is used for immunoprecipitation. Proteins are separated by 10-15% SDS-PAGE, transferred, and blotted with the antibodies described. The blots are then incubated with secondary antibodies or the Clean-Blot IP Detection Reagent (21230, Thermo Scientific) at room temperature for 1 h. The protein signals are detected by ECL kit (32106, Pierce) and quantified using ImageJ software.
(§2) Rats receive oral administration of C1 (10 mg/kg) for 21 days. Another dose of C1 is given for 6 h and the average concentration of C1 in brain tissues is 0.849±0.302 μg/g. Then the autophagy markers in the livers and brains are analyzed. Chronic C1 treatment increases the levels of LC3-II in the livers (FIGS. 11 A and B). […] During the treatment procedure, no changes in body weight or behavior abnormalities are observed.

[4] = rat, in vivo, po
Description: as §1
The average concentration of C1 in brain tissues is 0.26±0.063 μg/g determined by HPLC after oral administration of C1 (10 mg/kg) for 6 h.
as §2

[5] = test system: human P301S tau; experiment: Oral treatment of P301S tau transgenic mice: Tau species in brain; type: in vivo; conditions: immunostaining of brain slices

O=C(/C=C/c1ccccc1I)/C=C/c1ccccc1I [E4]
mRFP-GFP-LC3 (tfLC3) puncta (autophagy flux, autolysosome formation) ([1]; N2a cells transfected with tfLC3, 12 hours): significantly increases the number of red-only puncta
LC3 punctuates in the presence of CQ ([1]; N2a cells, 1 μM, 12 hours): further enhances
LC3 punctuates compared to vehicle control ([1]; N2a cells, 1 μM, 12 hours, endogenous LC3 staining): significantly increases

COc1cc(/C=C/C(=O)CC(=O)/C=C/c2ccc(O)c(OC)c2)ccc1O [curcumin, Curcumin, reference compound]
direct binding to purified TFEB [2]: not

COc1ccccc1/C=C/C(=O)/C=C/c1ccccc1OC [C1, 1,5-bis(2-methoxyphenyl)penta-1,4-dien-3-one]
body weight or behavior abnormalities during treatment [3]: no changes
histological evaluation of major organs (liver, lungs, kidneys, and pancreas) [3]: do not reveal any morphological abnormalities
levels of LC3-II in the livers [3]: increases
levels of TFEB and LC3-II in frontal cortex and striatum [3]: significantly increases
levels of endogenous SQSTM1/p62 and SNCA in rats' brains [3]: significantly decrease
passage of the blood-brain barrier (BBB) [4]: can pass
direct binding to purified TFEB [2]: can directly bind
AT8 and PHF1 positive cells in the hippocampus and cortex [5]: dramatically reduced
